Values joined by “and” are separate entries in the source; they are usually repeats but may differ in a detail not shown here. Equal entries are not always repeated. Where two headings read alike, the source gives them in different places.
What was measured:
P. falciparum Dd2-2D4 = test: P. falciparum asexual blood stage (ABS) growth assay, SYBR Green, 72 h, wild-type parasites; format: cell-based, Plasmodium falciparum; conditions: Plasmodium falciparum, DD2; SI Fig 16b; values on -log scale; read-out: ABS - Dd2-2D4 (converted)
PfcProRS = target: T1, PfcProRS (Plasmodium falciparum, UniProt Q8I5R7); format: binding; conditions: replicates 1-3
T1 construct: made in house; host or cells: E. coli SoluBL-21
T1 sequence (Q8I5R7 249-746): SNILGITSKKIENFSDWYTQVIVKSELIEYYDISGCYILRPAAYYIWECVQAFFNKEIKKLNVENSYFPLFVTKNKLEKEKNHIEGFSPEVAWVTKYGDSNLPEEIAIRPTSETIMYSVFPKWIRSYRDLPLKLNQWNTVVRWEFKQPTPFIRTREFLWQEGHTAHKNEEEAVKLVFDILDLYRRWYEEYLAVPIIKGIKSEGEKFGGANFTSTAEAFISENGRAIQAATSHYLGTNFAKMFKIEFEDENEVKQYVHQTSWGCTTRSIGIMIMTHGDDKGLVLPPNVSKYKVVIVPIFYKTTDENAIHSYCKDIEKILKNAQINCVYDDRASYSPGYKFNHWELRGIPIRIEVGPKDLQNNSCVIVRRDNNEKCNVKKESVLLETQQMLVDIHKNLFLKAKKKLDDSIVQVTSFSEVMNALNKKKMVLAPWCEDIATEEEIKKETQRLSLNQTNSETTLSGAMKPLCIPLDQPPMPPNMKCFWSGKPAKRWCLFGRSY

HsProRS = HsProRS (Homo sapiens, UniProt P07814); test: TR-FRET ligand displacement assay with tracer MAT379 (CoraFluor-1-Halo and anti-His6 antibody formats); format: binding; parameters: made in house; host or cells: E. coli SoluBL-21; conditions: for HsProRS % signal at 10 μM: no added proline/ATP (-)
Chain of HsProRS (P07814 996-1512): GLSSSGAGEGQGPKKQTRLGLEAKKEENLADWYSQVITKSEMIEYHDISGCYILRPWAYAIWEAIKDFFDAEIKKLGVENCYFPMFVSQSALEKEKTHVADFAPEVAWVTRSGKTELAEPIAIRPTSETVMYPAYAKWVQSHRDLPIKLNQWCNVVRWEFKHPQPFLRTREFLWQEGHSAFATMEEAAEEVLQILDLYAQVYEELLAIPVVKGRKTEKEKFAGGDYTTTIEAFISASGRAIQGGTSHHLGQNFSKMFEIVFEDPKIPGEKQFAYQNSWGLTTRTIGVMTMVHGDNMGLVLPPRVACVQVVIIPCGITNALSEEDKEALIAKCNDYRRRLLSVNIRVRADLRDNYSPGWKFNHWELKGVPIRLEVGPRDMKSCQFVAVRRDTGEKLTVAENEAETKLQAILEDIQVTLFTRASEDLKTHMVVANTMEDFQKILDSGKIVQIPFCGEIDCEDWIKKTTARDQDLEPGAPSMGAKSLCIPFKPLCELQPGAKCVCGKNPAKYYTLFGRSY

[1] = read-out: HsProRS IC50 + 100 μM proline, + 100 μM proline

Compound | EC50 (P. falciparum Dd2-2D4) [µM] | Normalized response, dose-response replicates (SI Fig 14) (PfcProRS; Log[inhibitor] (M) -5.000) | Normalized response, dose-response replicates (SI Fig 14) (PfcProRS; Log[inhibitor] (M) -5.301) | Normalized response, dose-response replicates (SI Fig 14) (PfcProRS; Log[inhibitor] (M) -5.601) | Normalized response, dose-response replicates (SI Fig 14) (PfcProRS; Log[inhibitor] (M) -5.904) | Normalized response, dose-response replicates (SI Fig 14) (PfcProRS; Log[inhibitor] (M) -6.208) | Normalized response, dose-response replicates (SI Fig 14) (PfcProRS; Log[inhibitor] (M) -6.509) | Normalized response, dose-response replicates (SI Fig 14) (PfcProRS; Log[inhibitor] (M) -6.796) | Normalized response, dose-response replicates (SI Fig 14) (PfcProRS; Log[inhibitor] (M) -7.108) | Normalized response, dose-response replicates (SI Fig 14) (PfcProRS; Log[inhibitor] (M) -7.409) | Normalized response, dose-response replicates (SI Fig 14) (PfcProRS; Log[inhibitor] (M) -7.710) | Normalized response, dose-response replicates (SI Fig 14) (PfcProRS; Log[inhibitor] (M) -8.000) | Normalized response, dose-response replicates (SI Fig 14) (PfcProRS; Log[inhibitor] (M) -8.301) | Normalized response, dose-response replicates (SI Fig 14) (PfcProRS; Log[inhibitor] (M) -8.602) | Normalized response, dose-response replicates (SI Fig 14) (PfcProRS; Log[inhibitor] (M) -9.000) | Normalized response, dose-response replicates (SI Fig 14) (PfcProRS; Log[inhibitor] (M) -9.301) | IC50 (HsProRS) [µM] | HsProRS % signal at 10 μM, + 100 μM proline (HsProRS; + 100 μM proline) [%] | HsProRS % signal at 10 μM (HsProRS) [%] | IC50 (HsProRS; [1]) [µM]
Nc1nccnc1C(=O)NC1Cc2ccccc2C1 [compound 45] | 13.6 | 9.00E-01 and 8.01E-01 and 8.09E-01 | 8.40E-01 and 9.11E-01 and 9.42E-01 | 1.06E+00 and 1.02E+00 and 9.65E-01 | 1.09E+00 (2×) and 1.04E+00 | 9.29E-01 and 9.65E-01 and 9.12E-01 | 8.69E-01 and 9.97E-01 and 9.91E-01 | 1.07E+00 and 1.10E+00 and 9.29E-01 | 1.07E+00 and 1.01E+00 and 9.62E-01 | 8.73E-01 and 9.86E-01 and 1.07E+00 | 9.54E-01 and 1.09E+00 and 1.02E+00 | 9.85E-01 and 1.09E+00 and 1.00E+00 | 1.09E+00 and 9.49E-01 and 9.81E-01 | 1.13E+00 and 9.21E-01 and 9.56E-01 | 1.01E+00 and 9.94E-01 and 8.80E-01 | 9.92E-01 (2×) and 9.81E-01 | > 10 | 83.7 | 90.2 | > 10
Nc1nccnc1C(=O)NC1CCCCC1 [compound 48] | 8.75 | 7.98E-01 and 9.64E-01 and 8.59E-01 | 1.00E+00 and 9.90E-01 and 9.60E-01 | 1.12E+00 and 9.39E-01 and 1.04E+00 | 1.09E+00 and 1.16E+00 and 9.71E-01 | 1.14E+00 and 9.41E-01 and 1.00E+00 | 1.15E+00 and 1.05E+00 and 9.08E-01 | 9.89E-01 and 9.81E-01 and 1.09E+00 | 9.93E-01 and 1.12E+00 and 9.45E-01 | 1.04E+00 and 1.09E+00 and 1.06E+00 | 1.09E+00 and 9.79E-01 and 1.07E+00 | 1.09E+00 and 1.00E+00 and 1.03E+00 | 1.08E+00 and 1.10E+00 and 1.07E+00 | 1.05E+00 and 1.09E+00 and 1.03E+00 | 1.01E+00 and 1.14E+00 and 9.74E-01 | 1.02E+00 and 1.01E+00 and 1.04E+00 | > 10 | 87.4 | 89.6 | > 10

Source: PMC9403976, “Elucidating the path to Plasmodium prolyl-tRNA synthetase inhibitors that overcome halofuginone resistance” (Nature Communications, 2022)
